#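 Results reflect a 48-hour exposure of cells in 96-well plates to compound at five concentrations. At the GI50, growth is halved.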 Calls of active or inactive are those of the source. Rule as the data show it: active = GI50 up to about 1.1 µM and inactive = higher.
# What was measured:
# Test in all cases: inhibition of tumour cell growth, NCI panel, 48 h
# LXFL 529 = system: LXFL 529
# Malme-3M = system: Malme-3M
# SNB-19 = system: SNB-19
# MOLT-4 = system: MOLT-4
# HL-60 = system: HL-60
# OVCAR-3 = system: OVCAR-3
# RPMI-8226 = system: RPMI-8226
# SK-OV-3 = system: SK-OV-3
# SNB-75 = system: SNB-75
# XF498 = system: XF498
# U-251 = system: U-251
# RXF 393 = system: RXF 393
# NCI-H460 = system: NCI-H460
# SNB-78 = system: SNB-78
# LOX IMVI = system: LOX IMVI
# HCC 2998 = system: HCC 2998
# OVCAR-8 = system: OVCAR-8
# UACC-62 = system: UACC-62
# CCRF-CEM = system: CCRF-CEM
# SK-MEL-2 = system: SK-MEL-2
# HT-29 = system: HT-29
# SF-539 = system: SF-539
# DMS-273 = system: DMS-273
# SK-MEL-28 = system: SK-MEL-28
# EKVX = system: EKVX
# SR = system: SR
# NCI-H226 = system: NCI-H226
# SW-620 = system: SW-620
# SF-295 = system: SF-295
# OVCAR-5 = system: OVCAR-5
# HCT-116 = system: HCT-116
# HCT-15 = system: HCT-15
# UO-31 = system: UO-31
# TK-10 = system: TK-10
# SN12C = system: SN12C
# UACC-257 = system: UACC-257
# 786-0 = system: 786-0
# COLO 205 = system: COLO 205
# HOP-18 = system: HOP-18
# A549 = system: A549
# ACHN = system: ACHN
# HOP-62 = system: HOP-62
# KM-20L2 = system: KM-20L2
# HOP-92 = system: HOP-92
# SF-268 = system: SF-268
# M19-MEL = system: M19-MEL
# IGROV-1 = system: IGROV-1
# NCI-H23 = system: NCI-H23
# NCI/ADR-RES = system: NCI/ADR-RES
# A498 = system: A498
# SK-MEL-5 = system: SK-MEL-5
# MCF7 = system: MCF7
# DMS-114 = system: DMS-114
# KM12 = system: KM12
# K562 = system: K562
# DLD-1 = system: DLD-1
# NCI-H522 = system: NCI-H522
# CAKI-1 = system: CAKI-1
# OVCAR-4 = system: OVCAR-4
smiles,measurement,setting,value
Cc1cc2c(=O)cc(-c3ccncc3)oc2c(C(N)=O)c1C,GI50,LXFL 529,> 100 µM (inactive)
same,GI50,Malme-3M,> 100 µM (inactive)
same,GI50,SNB-19,> 100 µM (inactive)
same,GI50,MOLT-4,> 100 µM (inactive)
same,GI50,HL-60,> 100 µM (inactive)
same,GI50,OVCAR-3,> 100 µM (inactive)
same,GI50,RPMI-8226,> 100 µM (inactive)
same,GI50,SK-OV-3,> 100 µM (inactive)
same,GI50,SNB-75,> 100 µM (inactive)
same,GI50,XF498,> 100 µM (inactive)
same,GI50,U-251,> 100 µM (inactive)
same,GI50,RXF 393,> 100 µM (inactive)
same,GI50,NCI-H460,87.9 µM (inactive)
same,GI50,SNB-78,> 100 µM (inactive)
same,GI50,LOX IMVI,> 100 µM (inactive)
same,GI50,HCC 2998,> 100 µM (inactive)
same,GI50,OVCAR-8,> 100 µM (inactive)
same,GI50,UACC-62,99.8 µM (inactive)
same,GI50,CCRF-CEM,> 100 µM (inactive)
same,GI50,SK-MEL-2,> 100 µM (inactive)
same,GI50,HT-29,> 100 µM (inactive)
same,GI50,SF-539,> 100 µM (inactive)
same,GI50,DMS-273,> 100 µM (inactive)
same,GI50,SK-MEL-28,> 100 µM (inactive)
same,GI50,EKVX,> 100 µM (inactive)
same,GI50,SR,> 100 µM (inactive)
same,GI50,NCI-H226,> 100 µM (inactive)
same,GI50,SW-620,> 100 µM (inactive)
same,GI50,SF-295,> 100 µM (inactive)
same,GI50,OVCAR-5,> 100 µM (inactive)
same,GI50,HCT-116,83.4 µM (inactive)
same,GI50,HCT-15,> 100 µM
same,GI50,UO-31,> 100 µM (inactive)
same,GI50,TK-10,> 100 µM (inactive)
same,GI50,SN12C,> 100 µM (inactive)
same,GI50,UACC-257,> 100 µM (inactive)
same,GI50,786-0,> 100 µM (inactive)
same,GI50,COLO 205,> 100 µM (inactive)
same,GI50,HOP-18,> 100 µM (inactive)
same,GI50,A549,> 100 µM (inactive)
same,GI50,ACHN,> 100 µM (inactive)
same,GI50,HOP-62,> 100 µM (inactive)
same,GI50,KM-20L2,> 100 µM (inactive)
same,GI50,HOP-92,> 100 µM (inactive)
same,GI50,SF-268,> 100 µM (inactive)
same,GI50,M19-MEL,> 100 µM (inactive)
same,GI50,IGROV-1,> 100 µM (inactive)
same,GI50,NCI-H23,> 100 µM (inactive)
COc1cc2cc3c4cc(OC)c(OC)cc4cc[n+]3cc2cc1OC,GI50,Malme-3M,> 100 µM (inactive)
same,GI50,SNB-19,15.2 µM (inactive)
same,GI50,NCI/ADR-RES,> 100 µM (inactive)
same,GI50,MOLT-4,> 75.5 µM (inactive)
same,GI50,OVCAR-3,> 45.5 µM (inactive)
same,GI50,RPMI-8226,> 100 µM (inactive)
same,GI50,SK-OV-3,> 82.2 µM (inactive)
same,GI50,SNB-75,> 89.3 µM (inactive)
same,GI50,A498,> 100 µM (inactive)
same,GI50,XF498,> 100 µM (inactive)
same,GI50,U-251,9.46 µM (inactive)
same,GI50,RXF 393,46.6 µM (inactive)
same,GI50,NCI-H460,> 100 µM (inactive)
same,GI50,SK-MEL-5,> 100 µM (inactive)
same,GI50,SNB-78,> 74.3 µM (inactive)
same,GI50,LOX IMVI,> 100 µM (inactive)
same,GI50,MCF7,> 31.6 µM (inactive)
same,GI50,HCC 2998,> 30.6 µM (inactive)
same,GI50,OVCAR-8,> 100 µM (inactive)
same,GI50,UACC-62,> 100 µM (inactive)
same,GI50,CCRF-CEM,> 100 µM (inactive)
same,GI50,SK-MEL-2,> 100 µM (inactive)
same,GI50,DMS-114,1 µM (active)
same,GI50,HT-29,> 100 µM (inactive)
same,GI50,SF-539,> 100 µM (inactive)
same,GI50,DMS-273,> 100 µM (inactive)
same,GI50,SK-MEL-28,> 100 µM (inactive)
same,GI50,EKVX,> 100 µM (inactive)
same,GI50,NCI-H226,71.4 µM (inactive)
same,GI50,SW-620,> 100 µM (inactive)
same,GI50,SF-295,> 100 µM (inactive)
same,GI50,OVCAR-5,> 100 µM (inactive)
same,GI50,HCT-116,> 100 µM (inactive)
same,GI50,HCT-15,> 100 µM
same,GI50,UO-31,> 100 µM (inactive)
same,GI50,SN12C,12.4 µM (inactive)
same,GI50,UACC-257,> 100 µM (inactive)
same,GI50,KM12,> 100 µM (inactive)
same,GI50,COLO 205,78.2 µM (inactive)
same,GI50,HOP-18,> 100 µM (inactive)
same,GI50,K562,> 100 µM (inactive)
same,GI50,A549,> 100 µM (inactive)
same,GI50,HOP-62,> 100 µM (inactive)
same,GI50,DLD-1,> 100 µM (inactive)
same,GI50,KM-20L2,> 57.4 µM (inactive)
same,GI50,HOP-92,> 100 µM (inactive)
same,GI50,SF-268,0.435 µM (active)
same,GI50,NCI-H522,16.4 µM (inactive)
same,GI50,CAKI-1,> 100 µM (inactive)
same,GI50,OVCAR-4,> 100 µM (inactive)
same,GI50,M19-MEL,> 100 µM (inactive)
same,GI50,IGROV-1,> 100 µM (inactive)
same,GI50,NCI-H23,> 76.7 µM (inactive)
